Experimental data taken from patent US12696899B2, “Microbiocidal 2-acylamino-thiazole-4-carboxamide derivatives” (SYNGENTA CROP PROTECTION AG, priority 2018, dated 2026).
Where two headings read alike, the source gives them in different places.

Columns and labels:
[1] = pH 7.2
[2] = tested on: Gibberella zeae (Fusarium graminearum); type: in vivo; details: 200 ppm; wheat spikelet preventative; compared to untreated control
[3] = Photostability, thin-film irradiation in Atlas Suntest xenon lamp; type: physicochemical; details: thin film on glass, Suntest 750 W/m2; time for first 50% loss
Procedure: Photostability tests were carried out by irradiation of thin-film deposits of compounds and formulations on glass surfaces, using a filtered xenon lamp system (Atlas Suntest) which reproduces the spectrum and intensity of sunlight. The spectral output power of the Suntest was set to 750 W/m2, which is the typical daily maximum irradiance level at noon (UK, midsummer).
Test compounds were typically dissolved in HPLC grade methanol to give 1 g/L stock solutions. Alternatively, formulated compounds were suspended in water at the same concentration. 2 μL droplets of test solutions were spotted onto microscope cover slips in a 3D printed holder, allowed to dry then irradiated in the Suntest for varying times. Cover slips were then removed from the Suntest and placed in 4 dram vials; 1 mL of wash solvent (typically 30:70 acetonitrile: 0.2% aqueous formic acid) was added, and the vials shaken to extract compounds into solution. Solutions were analysed by reverse phase HPLC, typically using a Waters UPLC system with Photodiode Array (PDA) and Waters columns (BEH C18, 100×2.1 mm×1.7 μm) using mixed aqueous:acetonitrile mobile phase, acidifed with 0.2% formic acid. Peak detection was at the optimum wavelength for each candidate compound and PDA peak areas were used for quantification. Plots of % loss versus time were used to estimate T50 values, being the time taken for first 50% loss of test compound.

[4] = physchem; details: pH 7
[5] = tested on: Fusarium culmorum; type: in vivo; details: 200 ppm; wheat spikelet preventative; compared to untreated control
[6] = Solubility in aqueous buffer (10 mM mixed phosphate, pH 7.20)
[7] = Solubility in heptane
[8] = Octanol-water partition coefficient (Log P) by HPLC on octanol-coated mini-columns; details: pH 7
[9] = tested on: Magnaporthe grisea (Pyricularia oryzae); assay: whole plant or invertebrate; type: in vivo; details: foliar, read-out: control of Magnaporthe grisea
[10] = tested on: Pyrenophora teres; assay: Example B15 Pyrenophora teres/barley/leaf disc preventative (net blotch); type: in vivo; details: foliar, barley leaf disc preventative, compared to untreated control

SMILES | Solubility in water [1] | Photostability T50 [3] | chromatographic logP [4] | further results
COC(=O)CC(=O)N(c1cc(F)nc(F)c1)c1nc(C(=O)NC2CCC2(C)C)c(C)s1 (stereo not shown) [I.b.607, methyl 3-[(2,6-difluoro-4-pyridyl)-[4-[(2,2-dimethylcyclobutyl)carbamoyl]-5-methyl-thiazol-2-yl]amino]-3-oxo-propanoate] | 12 ppm | 4.4 h | 3.59 | control of Gibberella zeae [2]: at least 80%
Cc1sc(N(C(=O)c2ccco2)c2cc(F)nc(F)c2)nc1C(=O)NC1CCC1(C)C (stereo not shown) [I.b.614, 2-[(2,6-difluoro-4-pyridyl)-(furan-2-carbonyl)amino]-N-(2,2-dimethylcyclobutyl)-5-methyl-thiazole-4-carboxamide] | 0.054 ppm | 14 h | 4.61 | –
COCC(=O)N(c1cc(F)nc(F)c1)c1nc(C(=O)NC2CCC2(C)C)c(C)s1 (stereo not shown) [I.b.600, 2-[(2,6-difluoro-4-pyridyl)-(2-methoxyacetyl)amino]-N-(2,2-dimethylcyclobutyl)-5-methyl-thiazole-4-carboxamide] | 18 ppm | 2.8 h | 3.35 | control of Fusarium culmorum [5]: at least 80%
Cc1sc(N(C=O)c2cc(F)nc(F)c2)nc1C(=O)NC1CCC1(C)C (stereo not shown) [I.b.595, 2-[(2,6-difluoro-4-pyridyl)-formyl-amino]-N-(2,2-dimethylcyclobutyl)-5-methyl-thiazole-4-carboxamide] | 2.5 ppm | 2.8 h | 3.61 | –
COC(=O)N(c1cc(F)nc(F)c1)c1nc(C(=O)NC2CCC2(C)C)c(C)s1 (stereo not shown) [I.b.598, methyl N-(2,6-difluoro-4-pyridyl)-N-[4-[(2,2-dimethylcyclobutyl)carbamoyl]-5-methyl-thiazol-2-yl]carbamate] | – | 6.2 h | – | Solubility in water [6]: 1.4 ppm; Solubility in heptane [7]: 1155 ppm; chromatographic logP [8]: 4.21
CCOC(=O)N(c1cc(F)nc(F)c1)c1nc(C(=O)NC2CCC2(C)C)c(C)s1 (stereo not shown) [I.b.599, ethyl N-(2,6-difluoro-4-pyridyl)-N-[4-[(2,2-dimethylcyclobutyl)carbamoyl]-5-methyl-thiazol-2-yl]carbamate] | 1.0 ppm | 11 h | 4.58 | –
COCC(=O)N(c1cc(F)nc(F)c1)c1nc(C(=O)NC2CCC23CCCC3)c(C)s1 (stereo not shown) [I.c.600, 2-[(2,6-difluoro-4-pyridyl)-(2-methoxyacetyl)amino]-5-methyl-N-spiro[3.4]octan-3-yl-thiazole-4-carboxamide] | – | – | – | pest or weed control at 200 ppm [9]: ≥ 80%; pest or weed control at 200 ppm [10]: ≥ 80%
Cc1sc(N(C(=O)Oc2ccccc2)c2cc(F)nc(F)c2)nc1C(=O)NC1CCC1(C)C (stereo not shown) [I.b.616, phenyl N-(2,6-difluoro-4-pyridyl)-N-[4-[(2,2-dimethylcyclobutyl)carbamoyl]-5-methyl-thiazol-2-yl]carbamate] | – | 18 h | – | Solubility in water [6]: 0.10 ppm; Solubility in heptane [7]: 673 ppm; chromatographic logP [8]: 5.34
Cc1sc(Nc2cc(F)nc(F)c2)nc1C(=O)NC1CCC1(C)C (stereo not shown) [Compound E-0, 2-[(2,6-difluoro-4-pyridyl)amino]-N-(2,2-dimethylcyclobutyl)-5-methyl-thiazole-4-carboxamide, reference compound] | 0.70 ppm | 3.5 h | – | –
CCOC(=O)C(=O)N(c1cc(F)nc(F)c1)c1nc(C(=O)NC2CCC2(C)C)c(C)s1 (stereo not shown) [I.b.612, ethyl 2-[(2,6-difluoro-4-pyridyl)-[4-[(2,2-dimethylcyclobutyl)carbamoyl]-5-methyl-thiazol-2-yl]amino]-2-oxo-acetate] | – | 5.5 h | 4.34 | –
CC(=O)N(c1cc(F)nc(F)c1)c1nc(C(=O)NC2CCC2(C)C)c(C)s1 (stereo not shown) [I.b.596, 2-[acetyl-(2,6-difluoro-4-pyridyl)amino]-N-(2,2-dimethylcyclobutyl)-5-methyl-thiazole-4-carboxamide] | 3.7 ppm | 5.5 h | 3.8 | –
